{
  "source": "patent US7829087B2",
  "about": "“Methods of treating cognitive impairment” (Elan Pharmaceuticals, Inc., priority 2001, dated 2010)",
  "key": {"LTP in the dentate gyrus": {"tested_on": "LTP in the dentate gyrus", "test": "Aβ-mediated inhibition of LTP in the dentate gyrus in vitro (hippocampal slices, field EPSPs)", "type": "cell-based, rat", "settings": "for Suppression of Aβ inhibition of LTP in vitro (figure legends): dentate gyrus in vitro", "protocol": "All experiments were carried out on transverse slices of the rat hippocampus (males, age 3-4 weeks, weight 40-80 g) or mice (males, age 3-4 months). The brains were rapidly removed after decapitation and placed in cold oxygenated (95% O2/5% CO2) media. Slices were cut at a thickness of 350 μm using an Intracell Plus 1000 and placed in a storage container containing oxygenated medium at room temperature (20-22° C.) for 1 hr. The slices were then transferred to a recording chamber for submerged slices and continuously superfused at a rate of 5-6 ml/min at 30-32° C. The control media contained (in mM): NaCl, 120; KCl 2.5, NaH2PO4, 1.25; NaHCO3 26; MgSO4, 2.0; CaCl2, 2.0; D-glucose 10. All solutions contained 100 μM picrotoxin (Sigma) to block GABAA-mediated activity.\nStandard electrophysiological techniques were used to record field potentials. Presynaptic stimulation was applied to the medial perforant pathway of the dentate gyrus using a bipolar insulated tungsten wire electrode, and field excitatory postsynaptic potentials (EPSPs) were recorded at a control test frequency of 0.033 Hz from the middle one-third of the molecular layer of the dentate gyrus with a glass microelectrode. The inner blade of the dentate gyrus was used in all studies. In each experiment, an input-output curve (afferent stimulus intensity versus EPSP amplitude) was plotted at the test frequency. For all experiments, the amplitude of the test EPSP was adjusted to one-third of maximum (˜1.2 mV). LTP was evoked by 8 trains of high frequency stimulation (HFS), each of 8 stimuli at 200 Hz, inter-train interval 2s, with the stimulation voltage increased during the HFS so as to evoke an initial EPSP of the train of double the normal test EPSP amplitude. Control (vehicle alone) and experimental levels of LTP were measured on slices prepared from the same hippocampus. Recordings were analysed using p-CLAMP (Axon Instruments, CA, USA). The values reported herein were the means±S.E.M. for n slices. Two-tailed Student's t-test was used for statistical comparison.\nSynthetic Aβ (1-42) was obtained from Bachem. For the in vitro experiments, synthetic Aβ1-42 was prepared as a stock solution of 50 μM in ammonium hydroxide (0.1%), stored at −20° C., and then added to physiological medium immediately prior to each experiment. For the in vivo experiments, synthetic Aβ(1-42) (Bachem) was re-suspended in ice-cold milliQ water or Teplow. An aliquot was removed and centrifuged at 100,000 g for 3 h, conditions known to pellet fibrils and protofibrils (Klyubin et al., 2004).\nThe following integrin-αv antibodies (all IgG1 isotype) were used in the studies: 18C7, 17E6 and 20A9 (all from Calbiochem). The control antibodies used were 7H10, an IgG2a mouse antibody against human ICAM-1 and 27/1, an IgG1 isotype. Other compounds used were echistatin (Source), SM256 (3-[1-[3-(N-imidazol-2-ylamino)propyl]indazol-5-ylcarbonylamino]-2(S)-(2,4,6-trimethylbenzenesulfonylamino)propionic acid trifluoroacetate) which was prepared by Elan Pharmaceuticals (recoded as ELN 151993) according to the methods of Van Maes et al, 1994, superfibernectin (Sigma) and phalloidin (Calbiochem). In the in vivo experiments, SM256 was prepared for i.p administration in a suspension of Tween 80 (Sigma) in saline (15% v/v)."}, "LTP in the CA1 area": {"tested_on": "LTP in the CA1 area", "test": "Aβ-mediated inhibition of LTP in the CA1 in vivo", "parameters": "species or system rat"}, "Human cortical neurons": {"tested_on": "Human cortical neurons", "test": "Amylin two component toxicity", "type": "cell-based", "settings": "seed amylin 1 hour, then soluble amylin; toxicity after 1 day", "protocol": "Seed or aggregated amylin (1 mM) from CPR, Inc. (641-80, lot NG-0213) was made by adding 200 μl water/mg powder and then aging the solution for three days at 37° C. Soluble amylin (5 mM) was prepared by adding 40 μl DMSO/mg powder and sonicating the mixture for 30 minutes in a water bath. Both stock solutions were aliquoted and frozen until ready for use. Soluble amylin stock was diluted to 20 μM in culture medium just prior to use and filtered through an Amicon 30 filter that had been pre-washed with water. Filtered material was then diluted to its appropriate concentration.\nHuman cortical neurons (at 125,000 cells/96 well) were treated for 1 hour with seed amylin at 5 μM, 100 μl/well. Cells were aspirated and soluble amylin was added back at 5 μM per 100 μl/well. For compound studies, 50 μl of 2× compound was added before adding the soluble amylin."}, "[1]": {"tested_on": "Aβ meshwork in human cortical cultures (HCC)", "test": "Aβ meshwork formation on human cortical cultures (Aβ immunofluorescence)", "type": "cell-based", "settings": "for Inhibition of Aβ meshwork formation (in words): HCC", "protocol": "(§1) Tissue culture plates were coated with polyethyleneimine (PEI) in 150 mM sodium borate, pH 8.5, and incubated overnight at room temperature. Prior to adding cells, the wells were washed with PBS and Minimal Essential Media (MEM with 10% FBS) was added until cells were ready for plating. Human fetal cerebral cortex (E13-E16) was rinsed with Hank's Balanced Salt Solution (HBSS). Tissue was triturated in 1 mg of DNAse in HBSS. This suspension was filtered through a 100 micron nylon cell strainer and spun at 250×g for 5 minutes. The cells were resuspended in trypsin and incubated at 37° C. for 20 minutes. Modified Minimal Essential Media (MMEM with 10% FBS and 1 mg of DNase) was added and the cells were resuspended; then collected again by centrifugation. Cells were resuspended in MMEM containing B27, and plated in washed PEI-coated plates at 125,000 cells/well in 96 well plates or at 2.5 million cells/well in 6 well plates. The human cortical cultures (HCC) were incubated for 3 weeks with biweekly medium exchanges prior to treatment.\n(§2) Aβ was generated by adding double distilled water (ddH2O) to Aβ to make up a 1 mM stock. This was aged for 3 days at 37° C., aliquoted, and stored frozen at −20° C. Soluble Aβ was made by adding DMSO to Aβ to make a 7.5 mM stock, sonicating for 30 minutes, aliquoting, and freezing at −20° C. Neurotoxic Aβ was generated by adding ddH2O to Aβ, aliquoting, and freezing at −20° C.\nHCC treated with Aβ for 72 hours were fixed with 4% paraformaldehyde, stained with 5 μg/ml anti-Aβ-3D6-biotin, and visualized with 10 μg/ml streptavidin-FITC (Jackson)."}, "[2]": {"tested_on": "human cortical cultures (HCC)", "test": "Aβ neurotoxicity in human cortical neurons (alamar blue)", "type": "cell-based", "settings": "for Maximal inhibition of toxicity (%): Aβ neurotoxicity in HCC, 3 days; for Inhibition of Aβ neurotoxicity (in words): HCC", "protocol": "as §1, §2\nHCC were pretreated with antibodies or ligands for 30 minutes in neuronal medium (MEM) supplemented with glutamine and penicillin/streptomycin (basal media). One micromolar Aβ in basal medium was added for 1 hour. The medium was removed and the HCC were treated with antibodies or ligands and 20 μM soluble Aβ in basal medium for 3 days. At three days, the toxicity was determined by incubating in 10% alamar blue in basal medium for two hours. Fluorescence levels were measured relative to control and Aβ treated wells in triplicate."}},
  "note": "Several values for one entry are separate records, joined by “and”; a condition that tells them apart may be missing. Equal values may be shown once.",
  "data": [
    {"compound": "Cc1cc(C)c(S(=O)(=O)N[C@@H](CNC(=O)c2ccc3c(cnn3CCCNc3ncc[nH]3)c2)C(=O)O)c(C)c1.O=C(O)C(F)(F)F", "note": "[SM256, 3-[1-[3-(N-imidazol-2-ylamino)propyl]indazol-5-ylcarbonylamino]-2(S)-(2,4,6-trimethylbenzenesulfonylamino)propionic acid trifluoroacetate]", "values": [
      {"measurement": "LTP in the presence of Aβ plus SM256", "setting": "LTP in the dentate gyrus; SM256 10 μl M plus Aβ, n=5", "result": "129±5", "unit": "%"},
      {"measurement": "LTP with SM256 alone", "setting": "LTP in the dentate gyrus; SM256 10 μl M, no Aβ", "result": "148±7", "unit": "%"},
      {"measurement": "Suppression of Aβ inhibition of LTP in vitro (figure legends)", "setting": "LTP in the dentate gyrus", "result": "suppresses inhibition of LTP by Aβ"},
      {"measurement": "Suppression of soluble Aβ inhibition of LTP in vivo (figure legends)", "setting": "LTP in the CA1 area; CA1 area in vivo", "result": "suppresses inhibition of LTP by soluble Aβ"},
      {"measurement": "LTP after SM256 plus soluble Aβ", "setting": "LTP in the CA1 area; SM256 40 mg in 1.2 ml vehicle i.p., Aβ 50 pmol i.c.v. 40 min later, 10 min before HFS", "result": "133±5", "unit": "%"},
      {"measurement": "Effect of SM256 alone on baseline synaptic transmission or control LTP", "setting": "LTP in the CA1 area; SM256 40 mg in 1.2 ml vehicle, i.p.", "result": "no discernible effect on baseline synaptic transmission or control LTP"}
    ]},
    {"compound": "C=C1[C@@H](C)[C@H]2[C@H](Cc3ccccc3)NC(=O)[C@]23[C@H](OC(C)=O)/C=C/[C@@](C)(O)C(=O)[C@@H](C)C/C=C/[C@H]3[C@@H]1O", "note": "[cytochalasin D]", "values": [
      {"measurement": "Protection against amylin two component toxicity (in words)", "setting": "Human cortical neurons", "result": "amylin two component toxicity is further inhibited"}
    ]},
    {"compound": "Aβ: Synthetic Aβ (1-42) from Bachem, used to inhibit LTP", "values": [
      {"measurement": "LTP (EPSP, % baseline) in the presence of Aβ alone", "setting": "LTP in the dentate gyrus; Aβ 500 nM, 1 h post-HFS, dentate gyrus slices", "result": "105±3 % baseline and 105±6 % baseline and 103±3 % baseline"},
      {"measurement": "LTP (% baseline) in the presence of soluble fibril-free Aβ", "setting": "LTP in the CA1 area; Aβ 50 pmol in 5 μl i.c.v., 10 min prior to HFS, 3 h post-HFS, anaesthetized rats", "result": "105±5", "unit": "%"},
      {"measurement": "LTP after peripheral vehicle followed by central injection of Aβ", "setting": "LTP in the CA1 area; vehicle i.p., Aβ 50 pmol i.c.v.", "result": "103±10", "unit": "%"}
    ]},
    {"compound": "Fibronectin: αvβ1 integrin ligand, large multidomain glycoprotein", "values": [
      {"measurement": "Meshwork Inhibition", "setting": "[1]; Aβ meshwork on HCC, Table 1", "result": "Yes"},
      {"measurement": "Inhibition of Aβ meshwork formation (in words)", "setting": "[1]", "result": "capable of inhibiting Aβ meshwork formation and neurotoxicity"},
      {"measurement": "Maximal inhibition of toxicity (%)", "setting": "[2]", "result": 32, "unit": "%"},
      {"measurement": "Inhibition of Aβ neurotoxicity (in words)", "setting": "[2]", "result": "capable of inhibiting Aβ meshwork formation and neurotoxicity"}
    ]},
    {"compound": "Laminin", "values": [
      {"measurement": "Inhibition of Aβ meshwork formation (in words)", "setting": "[1]", "result": "not capable of inhibiting Aβ meshwork or neurotoxicity"},
      {"measurement": "Maximal inhibition of toxicity (%)", "setting": "[2]", "result": 20, "unit": "%"},
      {"measurement": "Inhibition of Aβ neurotoxicity (in words)", "setting": "[2]", "result": "not capable of inhibiting Aβ meshwork or neurotoxicity"}
    ]},
    {"compound": "echistatin (QCESGPCCRNCKFLKEGTICKRARGDDMDDYCNGKTCDCPRNPHKGPAT)", "values": [
      {"measurement": "Suppression of Aβ inhibition of LTP in vitro (figure legends)", "setting": "LTP in the dentate gyrus", "result": "suppresses inhibition of LTP by Aβ"},
      {"measurement": "LTP in the presence of Aβ plus echistatin", "setting": "LTP in the dentate gyrus; echistatin 50 nM plus Aβ, n=5", "result": "143±6", "unit": "%"},
      {"measurement": "LTP with echistatin alone", "setting": "LTP in the dentate gyrus; echistatin 50 nM, no Aβ", "result": "158±5", "unit": "%"}
    ]}
  ]
}
